According to patent US20260191968A1, “PROTAC DEGRADERS OF MLLT1 AND/OR MLLT3” (DARK BLUE THERAPEUTICS LTD, priority 2024, published 2026):

What was measured:
human AML = assay: in vivo mouse model of human AML (tumour growth); settings: oral administration, procedure of Example 236, FIG. 1
MLLT3 = biological target: T1, MLLT3 (Mus musculus, UniProt A2AM29); assay: MLLT3 degradation assay in NIH/3T3 cells (JESS), dose response, 5 h; format: cell-based
T1 construct: host or cells: NIH/3T3
T1 sequence (A2AM29 1-569): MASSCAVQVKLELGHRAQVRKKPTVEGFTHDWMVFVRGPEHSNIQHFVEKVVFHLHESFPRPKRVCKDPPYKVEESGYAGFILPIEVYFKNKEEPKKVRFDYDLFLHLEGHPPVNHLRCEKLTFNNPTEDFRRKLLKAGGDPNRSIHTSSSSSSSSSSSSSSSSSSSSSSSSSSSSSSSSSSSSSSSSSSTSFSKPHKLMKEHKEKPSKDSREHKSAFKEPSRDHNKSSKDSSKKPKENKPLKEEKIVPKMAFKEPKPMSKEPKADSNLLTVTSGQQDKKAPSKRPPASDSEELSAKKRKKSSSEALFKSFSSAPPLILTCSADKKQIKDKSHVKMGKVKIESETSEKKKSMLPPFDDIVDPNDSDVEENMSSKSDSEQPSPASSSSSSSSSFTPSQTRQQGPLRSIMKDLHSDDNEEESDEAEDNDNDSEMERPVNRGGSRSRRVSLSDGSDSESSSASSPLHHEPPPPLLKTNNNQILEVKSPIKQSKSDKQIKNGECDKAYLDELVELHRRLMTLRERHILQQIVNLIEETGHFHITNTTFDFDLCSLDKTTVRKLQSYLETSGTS
Description: MLLT3 degradation efficacy of compounds was tested in an automated chemiluminescent detection system (JESS, Cat #004-650). NIH/3T3 (#CRL-1658, ATCC) were seeded at a density of 0.5 million cells/well in a cell culture treated 6-well cell culture plate in 2 mL of complete medium (DMEM+10% FBS+IX Penicillin-Streptomycin) and incubated at 37° C., 5% CO2. The next day, 10 mM DMSO stocks were prepared, and cells were treated with eight concentrations of test compounds, starting from 100 nM, 5-fold dilution, at a final DMSO concentration of 0.1% and incubated for 5 h at 37° C., 5% CO2. Post incubation, cells were washed with HBSS and lysed in 70 μL of RIPA buffer supplemented with Protease inhibitors (sc-24948; Santa Cruz). Later, protein estimation was done using BCA protein assay kit (23228; Pierce). 4 μg protein lysate (4 μL of 1 μg/μL lysate) was loaded into each well of the JESS cartridge (SM-W004; Bio-techne) and the JESS run was performed using 1:200 dilution of anti-mouse MLLT3 antibody (#47577; CST) and 1:800 dilution of anti-human GAPDH antibody (2118; Cell signaling technology) with anti-rabbit secondary detection module (DM-001; Bio-Techne). Post run, data was analysed using “Compass for SW” software for chemiluminescent detection. Peak fit was done using “dropped lines” method. […]

MLLT1 = biological target: T2, MLLT1 (Homo sapiens, UniProt Q03111); assay: MLLT1 degradation assay in MV4-11 cells (JESS chemiluminescent detection), three concentrations, 24 h; format: cell-based; settings: with respect to DMSO control
T2 construct: host or cells: MV4-11
T2 sequence (Q03111 1-559): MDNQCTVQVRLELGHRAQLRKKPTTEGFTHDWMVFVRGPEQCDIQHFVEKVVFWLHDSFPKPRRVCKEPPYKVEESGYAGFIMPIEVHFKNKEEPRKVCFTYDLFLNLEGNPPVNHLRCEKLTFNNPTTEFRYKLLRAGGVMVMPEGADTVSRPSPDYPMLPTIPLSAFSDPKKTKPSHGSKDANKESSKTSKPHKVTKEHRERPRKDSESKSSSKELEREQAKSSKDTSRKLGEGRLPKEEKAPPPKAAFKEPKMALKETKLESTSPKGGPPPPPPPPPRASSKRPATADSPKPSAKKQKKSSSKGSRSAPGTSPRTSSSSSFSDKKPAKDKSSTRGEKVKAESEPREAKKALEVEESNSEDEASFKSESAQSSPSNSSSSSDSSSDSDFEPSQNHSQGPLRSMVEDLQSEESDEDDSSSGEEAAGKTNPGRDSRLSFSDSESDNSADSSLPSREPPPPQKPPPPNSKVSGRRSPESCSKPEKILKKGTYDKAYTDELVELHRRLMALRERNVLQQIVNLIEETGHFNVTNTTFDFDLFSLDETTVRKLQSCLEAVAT
How it was run: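 MV4-11 cells treated 24 h at 37° C, 5% CO2 with 1000, 100 and 10 nM compound (0.1% DMSO final). MLLT1 quantified by automated capillary chemiluminescent immunodetection; band peak area expressed as % degradation relative to DMSO control.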

Question: What does the source list for `CN1CCC[C@@H]1c1cc2cnc(NC(=O)c3ccc(CCCC#Cc4cccc5c4CN(C4CCC(=O)NC4=O)C5=O)cc3)cc2[nH]1` (stereo partly drawn) [Example 55, 4-(5-(2-(2,6-dioxopiperidin-3-yl)-1-oxoisoindolin-4-yl)pent-4-yn-1-yl)-N-(2-((R)-1-methylpyrrolidin-2-yl)-1H-pyrrolo[3,2-c]pyridin-6-yl)benzamide]?
Answer: tumour growth (human AML): reduction in tumour growth; DC50 (MLLT3): 0.8 nM; Dmax (MLLT3; NIH3T3, maximum % degradation observed): 92%; MLLT1% Degradation @ 0.01 μM (MLLT1; 0.01 μM): A (Category A: A ≥ 75% degradation); MLLT1% Degradation @ 0.1 μM (MLLT1; 0.1 μM): A (Category A: A ≥ 75% degradation); MLLT1% Degradation @ 1 μM (MLLT1; 1 μM): A (Category A: A ≥ 75% degradation)
